Experimental data reported in patent US20210309645A1, “pH DEPENDENT PHOTOACOUSTIC COMPOUNDS AND APPLICATIONS THEREOF” (Wake Forest University, priority 2018, published 2021).

Legend:
[1] = in ethanol; cited from earlier work
[2] = UV-Vis absorbance spectra in variable pH PBS buffer solutions; assay type: physicochemical; settings: pH 7.4, 7.0, 6.8, 6.5
Experimental: Substantial differences were observed between pH 7.4 and pH 7.0 (B), pH 7.0 and 6.8 (C). A small additional peak was observed between pH 6.8 and 6.5 (D). This initial identification of the ability of compound (Ia) to modulate absorbance spectra was solely dependent upon variation in pH as changes in absorbance in various light conditions, various levels of 02, and various cell culture medium (with and without phenol red) (data not shown) were also tested.

[3] = Quantum yield and spectral properties in buffered solutions, by comparison with rhodamine; assay type: physicochemical; settings: for ΦF (quantum yield): vs rhodamine
Experimental: The quantum yield of compound (Ia) under acidic (pH 6.0), neutral (7.0), and basic (pH 8.0) buffered solutions were calculated by comparison with rhodamine (ΦR=0.95 in ethanol), where ΦF is the quantum yield.

[4] = Absorption spectra in the presence of ions and reactive cellular products at pH 7.4; assay type: physicochemical; settings: Na+, K+, Ca2+, Fe2+, Mg2+, Zn2+, Fe3+ chloride salts, H2O2, GSH, cysteine
Experimental: Since compound (Ia) was designed to spectrally alter based upon H^+ protonation, compound (Ia) was also evaluated in the presence of de-ionized water, phosphate buffer saline, and/or other ions which are present in living organisms (Na^+, K^+, Ca^2+, Fe^2+, Mg^2+, Zn^2+, Fe^3+ and Fe^2+ as chloride salts), and other highly reactive cellular products (H2O2, glutathione (GSH), cysteine) at pH 7.4. […] With the establishment that modulation of spectral absorption corresponded to H^+ without influence of other ions, compound (Ia) was further evaluated as a potential optoacoustic agent.

[5] = system: orthotopic pancreatic tumor; assay: MSOT imaging of compound accumulation in mice with orthotopic pancreatic tumor; assay type: in vivo; settings: SCID mice, iv tail vein, 100 nM in PBS pH 7.4, 100 μl; after 2 h
Experimental: Preliminary evaluation of compound (Ia) accumulation within mice was conducted. A matrigel plug containing surgicel mesh and fibroblast was injected subcutaneously to stimulate non-malignant fibrotic tissue two weeks prior to orthotopic tumor implantation in 3 SCID mice. Mice were anesthesized using 1.5% isoflurane and a gas mixture of 0.9 L medical air and 0.1 L 02 to detect tissue hypoxia. Because areas of tissue hypoxia will also have acidic extracellular pH, tissue hypoxia served as an additional acidic extracellular pH (pHe) control. One week post tumor implantation mice were imaged using MSOT to obtain a baseline prior to iv tail vein injection of compound (Ia) at (100 nM in PBS pH 7.4) in 100 μl total volume.

[6] = pH 6.0 (acidic) buffered solution
[7] = pH 7.0 (neutral) buffered solution
[8] = pH 8.0 (basic) buffered solution

Molecule | ΦR (quantum yield of reference) [1] | pH dependence of absorbance spectra (UV-Vis) [2] | Absmax [3, 6] [nm] | Emmax [3, 6] [nm] | ΦF (quantum yield) [3, 6] | Absmax [3, 7] [nm] | Emmax [3, 7] [nm] | ΦF (quantum yield) [3, 7] | Absmax [3, 8] [nm] | Emmax [3, 8] [nm] | ΦF (quantum yield) [3, 8] | change of absorption spectra in the presence of other ions and reactive cellular products [4] | accumulation detected by MSOT [5]
rhodamine | 0.95 | – | – | – | – | – | – | – | – | – | – | – | –
C[N+]1=C(/C=C/C2=C3Oc4cc(O)ccc4C=C3CCC2)C(C)(C)c2c1ccc1c2ccc2cc(Cl)ccc21 [compound (Ia)] | – | absorbance spectra modulation corresponding with variable pH PBS buffer solutions | 652 | 694 | 0.18 | 704 | 745 | 0.22 | 765 | 810 | 0.23 | did not significantly alter | Pancreatic tumor specific accumulation
